Results as given in patent US11603355B2, “Charged ion channel blockers and methods for use” (Nocion Therapeutics, Inc., priority 2019, dated 2023).

Tests used:
NaV1.7 [1] = target: T1, NaV1.7 (Homo sapiens, UniProt Q15858); experiment: Manual patch clamp, external block of NaV1.7 current; type: cell-based; settings: % inhibition at 10 μM test concentration, compound in external solution, HEK293 cells, read-out: Nav1.7 Extracellular Inhibition
T1 construct: expressed in transfected cells; host or cells: HEK293 (tetracycline-inducible)
Procedure: Representative compounds of the invention were synthesized according to the described methods and tested for the ability to inhibit voltage-gated sodium channels.
NaV1.7 was expressed in HEK293 cells upon induction with tetracycline. Cells were cultured in DMEM containing 10% dialyzed Fetal Bovine Serum (VWR, Radnor, Pa.), 1% Glutamax (VWR, Radnor, Pa.), 1% Penicillin-Streptomycin (VWR, Radnor, Pa.), 100 mg/L Hygromycin (Thermo Fisher Scientific, Waltham, Mass. and 5 mg/L Blasticidin (Alfa Aesar, Haverhill, Mass.). Cells were grown and maintained at 37° C. in a humidified environment containing 10% CO2 in air. Cells were detached from the culture flask for passage and harvested using 0.05% Trypsin-EDTA (Thermo Fisher Scientific, Waltham, Mass.). To induce NaV1.7, cells were induced with tetracycline (0.1-1 μg/mL, IBI Scientific, Peosta, Iowa) the day before recording and plated onto 24-well plates. Cells were washed with DPBS (VWR, Radnor, Pa.), trypsinized and then triturated five times in 10 mL of growth media to break apart cell aggregates. For one 24-well plate, 2 mL of cell suspension was mixed with 23 mL of fresh growth media and 0.1-1 μg/mL tetracycline added. 1 ml of mixed media with cells was then added to each well of a 24-well plate, with a 12 mm coverslip already placed in the bottom of the well. Cells were then incubated in 37° C. and 10% CO2 overnight.
The intracellular solution contained the following (in mM) CsCl 135, NaCl 10, EGTA 10, HEPES 10, MgCl2 2, adjusted to pH 7.2 with CsOH. The external solution was a normal Ringer solution containing (in mM) NaCl 155, HEPES 10, glucose 10, KCl 3.5, CaCl2 1.5, MgCl2 1 adjusted to pH 7.4 with NaOH. CsCl is from Alfa Aesar, Haverhill, Mass. All other chemicals are from Sigma-Aldrich, St. Louis, Mo. In order to test the degree of internal block by test compounds the compounds were dissolved in internal solution at the indicated test concentration. […] In order to test the degree of external block by test compounds the compounds were dissolved in external solution at the indicated test concentration.
18-24 hours after cells were induced with tetracycline, coverslips were placed into a chamber filled with Normal Ringer solution at room temperature and the chamber placed on a microscope. Pipettes were pulled from borosilicate glass on a P97 puller (Sutter Instrument, Novato, Calif.) and polished with a MF-830 Microforge (Narishige International USA, Inc., Amityville, N.Y.) to have a resistance of 1.5-2.5 MΩ when filled with CsCl internal solution at room temperature. Healthy cells (those that are round and translucent with no visible blemishes) were chosen for seal formation. A seal was formed between the pipette and the cell, and a brief pulse of suction was used to “break in” and establish the whole-cell configuration. The membrane potential was held at −100 mV before the voltage protocol began. Only cells with series resistance between 1.5-5 MΩ were retained for analysis. The voltage protocol was as follows: Cells were held at −100 mV for 12 ms followed by a hyperpolarizing step to −105 mV for 12 ms to monitor the leak. Cells were then stepped back to −100 mV for 40 ms. Cells were then depolarized to −20 mV for 10 ms and then returned to −100 mV for 26 ms.
Once the recording was started, the voltage protocol was run at 30 second intervals for 5 minutes to get a stable baseline. This is followed by 5 Hz stimulation of the same voltage protocol run until the end of experiment. […] The test compound is added for 5 minutes before washing out with normal Ringer's solution. Currents were recorded using PatchMaster software with Heka EPC10 (HEKA Electronics, Lambrecht, Germany). Only cells with inward current amplitudes at −20 mV between 400 pA and 4 nA were accepted. In addition, cells having leak currents greater than 10% of their current amplitudes were discarded. […]

NaV1.7 [2] = target: T1, NaV1.7; experiment: Manual patch clamp, internal block of NaV1.7 current; type: cell-based; settings: compound in internal solution, HEK293 cells, read-out: Nav1.7 Intracellular Inhibition; for inhibition at 3 µM: % inhibition at 3 μM test concentration
In short: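 Whole-cell recordings at room temperature in tetracycline-induced HEK293 cells, compound in CsCl internal solution (pH 7.2), held at −100 mV with 10 ms steps to −20 mV. Four 30 s 5 Hz trains after 5 min baseline; fraction of peak inward current remaining computed as Itest/Ibaseline.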

T1 sequence (Q15858 whole entry): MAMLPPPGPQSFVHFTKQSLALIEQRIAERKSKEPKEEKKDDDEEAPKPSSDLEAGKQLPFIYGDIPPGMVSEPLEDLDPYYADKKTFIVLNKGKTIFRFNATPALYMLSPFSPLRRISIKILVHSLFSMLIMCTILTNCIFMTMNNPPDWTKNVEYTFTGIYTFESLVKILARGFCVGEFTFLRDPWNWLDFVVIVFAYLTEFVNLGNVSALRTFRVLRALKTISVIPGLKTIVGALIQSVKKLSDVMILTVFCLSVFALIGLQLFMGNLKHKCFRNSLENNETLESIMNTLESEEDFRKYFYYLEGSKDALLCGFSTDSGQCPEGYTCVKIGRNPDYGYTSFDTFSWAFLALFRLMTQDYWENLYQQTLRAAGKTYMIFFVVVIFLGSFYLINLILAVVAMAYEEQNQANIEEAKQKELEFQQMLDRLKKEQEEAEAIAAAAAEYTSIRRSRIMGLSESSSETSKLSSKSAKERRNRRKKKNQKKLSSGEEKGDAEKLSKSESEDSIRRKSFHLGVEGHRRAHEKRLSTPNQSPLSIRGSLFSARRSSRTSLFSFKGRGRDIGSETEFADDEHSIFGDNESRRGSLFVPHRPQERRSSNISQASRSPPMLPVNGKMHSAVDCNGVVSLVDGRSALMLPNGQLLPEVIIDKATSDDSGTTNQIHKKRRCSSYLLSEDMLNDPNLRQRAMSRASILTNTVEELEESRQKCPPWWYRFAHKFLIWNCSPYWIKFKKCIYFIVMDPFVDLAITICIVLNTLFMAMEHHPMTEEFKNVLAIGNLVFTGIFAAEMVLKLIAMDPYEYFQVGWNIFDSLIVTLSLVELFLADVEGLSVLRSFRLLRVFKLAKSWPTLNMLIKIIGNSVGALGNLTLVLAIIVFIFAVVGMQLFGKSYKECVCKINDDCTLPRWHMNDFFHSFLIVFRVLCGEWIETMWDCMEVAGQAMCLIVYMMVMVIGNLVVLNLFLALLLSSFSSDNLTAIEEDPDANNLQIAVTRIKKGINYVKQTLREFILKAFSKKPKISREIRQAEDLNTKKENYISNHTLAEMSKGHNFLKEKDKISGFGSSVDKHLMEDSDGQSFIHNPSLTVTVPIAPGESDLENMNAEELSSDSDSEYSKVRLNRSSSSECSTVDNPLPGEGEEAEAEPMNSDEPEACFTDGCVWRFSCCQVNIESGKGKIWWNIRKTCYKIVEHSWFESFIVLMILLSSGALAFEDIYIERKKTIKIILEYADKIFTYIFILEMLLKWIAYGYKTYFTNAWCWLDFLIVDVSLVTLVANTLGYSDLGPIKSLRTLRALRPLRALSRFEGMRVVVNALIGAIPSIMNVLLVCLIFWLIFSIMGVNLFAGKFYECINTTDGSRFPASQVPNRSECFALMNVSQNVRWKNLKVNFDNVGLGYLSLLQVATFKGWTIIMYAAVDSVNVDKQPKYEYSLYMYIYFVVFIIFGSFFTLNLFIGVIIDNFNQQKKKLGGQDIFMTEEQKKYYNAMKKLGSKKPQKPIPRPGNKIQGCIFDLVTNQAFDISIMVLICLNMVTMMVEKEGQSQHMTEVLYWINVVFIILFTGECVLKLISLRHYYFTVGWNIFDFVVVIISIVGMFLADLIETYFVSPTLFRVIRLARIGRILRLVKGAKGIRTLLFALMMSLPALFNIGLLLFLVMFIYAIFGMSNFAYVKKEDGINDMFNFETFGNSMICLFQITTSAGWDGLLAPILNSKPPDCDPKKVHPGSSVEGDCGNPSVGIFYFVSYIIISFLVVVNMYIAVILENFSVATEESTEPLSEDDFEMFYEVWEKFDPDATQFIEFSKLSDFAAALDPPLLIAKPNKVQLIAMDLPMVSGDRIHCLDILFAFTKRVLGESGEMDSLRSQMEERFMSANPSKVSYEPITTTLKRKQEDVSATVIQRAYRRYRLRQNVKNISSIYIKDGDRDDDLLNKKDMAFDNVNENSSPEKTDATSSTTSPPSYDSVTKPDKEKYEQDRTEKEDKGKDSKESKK

SMILES	inhibition at 10 µM (NaV1.7 [1]) [%]	inhibition at 3 µM (NaV1.7 [2]) [%]	inhibition at 10 µM (NaV1.7 [2]; % inhibition at 10 μM test concentration) [%]
CCCOC(=O)C1CCC[N+](CC(=O)Nc2c(C)cccc2C)(Cc2ccccc2)C1.[Br-] (stereo not shown) [Compound 47A, 1-benzyl-1-(2-((2,6-dimethylphenyl)amino)-2-oxoethyl)-3-(propoxycarbonyl) piperidin-1-ium bromide]	40 to 70	> 90	–
Cc1cccc(F)c1NC(=O)C[N+]1(Cc2ccccc2)CCCCCC1.[Br-] [Compound 69A, 1-benzyl-1-(2-((2-fluoro-6-methylphenyl)amino)-2-oxoethyl)azepan-1-ium bromide]	< 40	> 90	–
Cc1cccc(-c2ccccc2)c1NC(=O)C[N+]1(Cc2ccccc2)CCCCCC1.[Br-] [Compound 76A]	40 to 70	> 90	–

Other lines, results leading:

inhibition at 10 µM (NaV1.7 [1]) [%]	inhibition at 3 µM (NaV1.7 [2]) [%]	inhibition at 10 µM (NaV1.7 [2]; % inhibition at 10 μM test concentration) [%]	SMILES
< 40	> 90	–	CCC(=O)Oc1cccc(C)c1NC(=O)C[N+]1(Cc2ccccc2)CCCCCC1.[Br-] [Compound 80A, 1-benzyl-1-(2-((2-methyl-6-(propionyloxy)phenyl)amino)-2-oxoethyl) azepan-1-ium bromide]
< 40	> 90	> 95	CC[N+](CC)(CCCc1ccccc1)CC(=O)Nc1c(C)cccc1C.[Br-] [Compound 86A, N-(2-((2,6-dimethylphenyl)amino)-2-oxoethyl)-N, N-diethyl-3-phenylpropan-1-aminium bromide]
< 40	> 90	–	Cc1cccc(C)c1N1CCC([N+]2(Cc3ccccc3)CCCCCCC2)C1=O.[Br-] (stereo not shown) [Compound 90A]
